From ChEMBL document CHEMBL4715911, “Quest for a potent antimalarial drug lead: Synthesis and evaluation of 6,7-dimethoxyquinazoline-2,4-diamines” (Bioorg Med Chem, 2021)

Tests used:
Type in all cases: functional
[1] = system: Plasmodium berghei; experiment: Antimalarial activity against Plasmodium berghei NK65 infected in ICR mouse assessed as animal mean survival days at 58.2 mg/kg, po qd for 4 days (reference value: 6.2 +/-0.5 day); conditions: time 4 day
[2] = system: Plasmodium berghei; experiment: Antimalarial activity against Plasmodium berghei NK65 infected in ICR mouse assessed as parasitemia at 58.2 mg/kg, po qd for 4 days by Diff-Quik staining based microscopic method (reference value: 28.4 +/- 10.2%); conditions: time 4 day
[3] = system: Plasmodium berghei; experiment: Antimalarial activity against Plasmodium berghei NK65 infected in ICR mouse assessed as reduction in parasitemia at 116.4 mg/kg, po qd for 4 days by Diff-Quik staining based microscopic method (reference value: 0%); conditions: 96 h, time 4 day
[4] = system: Plasmodium berghei; experiment: Antimalarial activity against Plasmodium berghei NK65 infected in ICR mouse assessed as animal mean survival days at 116.4 mg/kg, po qd for 4 days (reference value: 6.2 +/- 0.5 day); conditions: time 4 day
[5] = system: Plasmodium berghei; experiment: Antimalarial activity against Plasmodium berghei NK65 infected in ICR mouse assessed as parasitemia at 116.4 mg/kg, po qd for 4 days by Diff-Quik staining based microscopic method (reference value: 28.4 +/- 10.2%); conditions: time 4 day
[6] = system: Plasmodium berghei; experiment: Antimalarial activity against Plasmodium berghei NK65 infected in ICR mouse assessed as reduction in parasitemia at 58.2 mg/kg, po qd for 4 days by Diff-Quik staining based microscopic method (reference value: 0%); conditions: 96 h, time 4 day
[7] = system: Plasmodium berghei; experiment: Antimalarial activity against Plasmodium berghei NK65 infected in ICR mouse assessed as reduction in parasitemia at 54.7 mg/kg, po qd for 4 days by Diff-Quik staining based microscopic method (reference value: 0%); conditions: 96 h, time 4 day
[8] = system: Plasmodium berghei; experiment: Antimalarial activity against Plasmodium berghei NK65 infected in ICR mouse assessed as mean survival days at 54.7 mg/kg, po for 4 days (reference value: 6.2 day); conditions: time 4 day
[9] = system: Plasmodium berghei; experiment: Antimalarial activity against Plasmodium berghei NK65 infected in ICR mouse assessed as parasitemia at 114.4 mg/kg, po qd for 4 days by Diff-Quik staining based microscopic method (reference value: 28.4 +/- 10.2%); conditions: time 4 day
[10] = system: Plasmodium berghei; experiment: Antimalarial activity against Plasmodium berghei NK65 infected in ICR mouse assessed as reduction in parasitemia at 114.4 mg/kg, po qd for 4 days by Diff-Quik staining based microscopic method (reference value: 0%); conditions: 96 h, time 4 day
[11] = system: Plasmodium berghei; experiment: Antimalarial activity against Plasmodium berghei NK65 infected in ICR mouse assessed as animal mean survival days at 114.4 mg/kg, po qd for 4 days (reference value: 6.2 +/- 0.5 day); conditions: time 4 day
[12] = system: Plasmodium berghei; experiment: Antimalarial activity against Plasmodium berghei NK65 infected in ICR mouse assessed as reduction in parasitemia at 57.2 mg/kg, po qd for 4 days by Diff-Quik staining based microscopic method (reference value: 0%); conditions: 96 h, time 4 day
[13] = system: Plasmodium berghei; experiment: Antimalarial activity against Plasmodium berghei NK65 infected in ICR mouse assessed as animal mean survival days at 57.2 mg/kg, po qd for 4 days (reference value: 6.2 +/- 0.5 day); conditions: time 4 day
[14] = system: Plasmodium berghei; experiment: Antimalarial activity against Plasmodium berghei NK65 infected in ICR mouse assessed as parasitemia at 57.2 mg/kg, po qd for 4 days by Diff-Quik staining based microscopic method (reference value: 28.4 +/- 10.2%); conditions: time 4 day
[15] = system: Plasmodium berghei; experiment: Antimalarial activity against Plasmodium berghei NK65 infected in ICR mouse assessed as parasitemia at 115 mg/kg, po qd for 4 days by Diff-Quik staining based microscopic method (reference value: 28.4 +/- 10.2%); conditions: time 4 day
[16] = system: Plasmodium berghei; experiment: Antimalarial activity against Plasmodium berghei NK65 infected in ICR mouse assessed as parasitemia at 57.5 mg/kg, po qd for 4 days by Diff-Quik staining based microscopic method (reference value: 28.4 +/- 10.2%); conditions: time 4 day
[17] = system: Plasmodium berghei; experiment: Antimalarial activity against Plasmodium berghei NK65 infected in ICR mouse assessed as reduction in parasitemia at 57.5 mg/kg, po qd for 4 days by Diff-Quik staining based microscopic method (reference value: 0%); conditions: 96 h, time 4 day
[18] = system: Plasmodium berghei; experiment: Antimalarial activity against Plasmodium berghei NK65 infected in ICR mouse assessed as animal mean survival days at 57.5 mg/kg, po qd for 4 days (reference value: 6.2 +/-0.5 day); conditions: time 4 day
[19] = system: Plasmodium berghei; experiment: Antimalarial activity against Plasmodium berghei NK65 infected in ICR mouse assessed as reduction in parasitemia at 115 mg/kg, po qd for 4 days by Diff-Quik staining based microscopic method (reference value: 0%); conditions: 96 h, time 4 day
[20] = system: Plasmodium berghei; experiment: Antimalarial activity against Plasmodium berghei NK65 infected in ICR mouse assessed as animal mean survival days at 115 mg/kg, po qd for 4 days (reference value: 6.2 +/- 0.5 day); conditions: time 4 day

CCCCNc1nc(N2CCCC2)nc2cc(OC)c(OC)cc12.Cl
MSD [1]: 17.5 days | Activity [2]: 1.5% | inhibition in vivo at 116.4 mg/kg [3]: > 99% | MSD [4]: 11.6 days | Activity [5]: 0% | inhibition in vivo at 58.2 mg/kg [6]: 95.5%

COc1cc2nc(Nc3ccncc3)nc(Nc3ccccc3C)c2cc1OC.Cl
inhibition in vivo at 54.7 mg/kg [7]: 60.8% | MSD [8]: 7.3 days

COc1cc2nc(N3CCCC3)nc(NC(C)c3ccccc3)c2cc1OC.Cl (stereo not given)
Activity [9]: 0% | inhibition in vivo at 114.4 mg/kg [10]: > 99% | MSD [11]: 28.2 days | inhibition in vivo at 57.2 mg/kg [12]: 92.1% | MSD [13]: 12 days | Activity [14]: 2%

COc1cc2nc(N3CCCC3)nc(Nc3ccccc3C)c2cc1OC.Cl
Activity [15]: 11.6% | Activity [16]: 14.7% | inhibition in vivo at 57.5 mg/kg [17]: 53.9% | MSD [18]: 7 days | inhibition in vivo at 115 mg/kg [19]: 63.8% | MSD [20]: 14.5 days
